Assay results: patent US5260189A, “Synthetic HIV-like peptides their compositions and uses” (Immunodiagnostics, Inc., priority 1992, dated 1993)
Entries after “also recorded” stand apart in the source; their conditions may differ.

Columns and labels:
[1] = test system: antibodies to HIV-1; assay: EIA of p24 synthetic peptide-BSA conjugates with serum pools and individual sera; type: binding, human
Experimental: (§1) The free peptides or peptide-protein conjugates of FIGS. 1-13 were initially screened for immunoreactivity by coating each well of polystyrene microtiter EIA plates (Costar, Cambridge, Mass., U.S.A.) with 0.2 ml amounts of concentrations of 5-50 micrograms/ml peptide in Tris buffer, 10 mM, pH 8.0, at 4° C. overnight. Peptides or peptide-protein conjugates showing immunoreactivity by EIA were then further diluted for coating to determine the minimal concentrations required that allowed maximal immunoreactivity with antibodies to HIV, and minimal nonspecific reactivity with normal sera. The EIA tests were performed as follows: The coating solution was removed from each well and the wells were blocked at 37° C. for 30 minutes with a solution of 50 mM phosphate, 100 mM NaCl, pH 7.4, 1% BSA, 0.5% gelatin. The wells were then aspirated dry with a microtiter plate washer and washed 3 times with a solution of 50 mM phosphate, 100 mM NaCl, 0.05% Tween 20, pH 7.4 (PBST). A 1:101 dilution (in PBST with 1% BSA, 1% NRS) of the primate serum to be tested was then added as 0.2 ml to each washed well and the plates were incubated at 37° C. for 30 minutes. The plates were then washed×3 with PBST, and 0.2 ml amounts of a 1:2000 dilution of goat anti-human (GAH) peroxidase enzyme conjugate (Organon Teknika, Cappel, Melvern, Pa., U.S.A.) that recognized human IgG, IgA, and IgM were added to each well, and the plates were incubated for 30 minutes at 37° C. The plates were then washed×3 with PBST and incubated with 0.2 ml/well substrate consisting of 0.1M citric acid pH 5.2, 0.1 mg/ml o-phenylene diamine, 0.01% H2 O2, at room temperature in the dark for 10 minutes. Reactions were stopped with 50 microliters of 4N H2 SO4, and the color development was quantitated in a Multiscan plate reader at A492. In each series of experiments positive and negative controls were included, and all tests were done in duplicate or quadruplicate. Most peptides and peptide conjugates were initially screened against a 1:101 dilution of pools of HIV positive or HIV negative sera, and the same serum pool was used to allow quantitative comparison of immunoreactivity of different free peptides or peptide-protein conjugates.
FIG. 8 illustrates the immunoreactivity and AA sequences of synthetic peptides of the p24 protein of HIV-1, when conjugated to BSA via their C-termini using SMCC, and reacted with a pool of approximately 50 sera from persons containing antibody to HIV-1, or with a pool of approximately 30 sera from individuals devoid of antibody to HIV-1. […] No negative sera (0/85, 0%) reacted, and 17 positive sera (17/98, 17%) were immunoreactive. It has been reported that individuals lose antibodies to p24 during the course of progression from asymptomatic infection to clinical disease and AIDS (Franchini et al., Blood 69:(2):437-441, 1987, and Weber et al., Lancet i:119-122, 1987), which may explain the lower frequency of antibodies to this peptide in the sera tested.

[2] = test system: antibodies to HIV-1; assay: EIA of peptide-protein conjugates coated on polystyrene microtiter plates, human sera; type: binding; settings: for immunoreactivity with HIV-1 antibodies (FIG. 1): C-terminal BSA-SMCC conjugates, 10 micrograms peptide/ml coating, 1:101 dilution of pooled HIV+ / HIV- sera
Experimental: as §1
(§2) The peptides in FIGS. 1 and 5 were synthesized as described in Example 1 and conjugated to KLH or BSA as described in Example 2. These peptide-protein conjugates were coated to polystyrene microtiter plates all at a concentration 10 micrograms peptide/ml and evaluated for immunoreactivity as described in Example 3, using a 1:101 dilution of a pool of sera (HIV+/SIV+, respectively) containing antibodies to HIV-1 (FIG. 1) or to HIV-2 (FIG. 5), as well as pooled serum (HIV-/SIV-, respectively) containing no antibodies to HIV-1 or HIV-2. […] Since sera from patients infected with HIV-2 are relatively unavailable in the United States, the immunoreactivity of HIV-2 synthetic peptides was assessed using serum from macaques infected with SIV, obtained from the University of Washington Primate Center, Seattle, Wash., U.S.A. The AA sequence of SIV is nearly identical to HIV-2 in the region of the peptides synthesized (see Myers et al., Human Retroviruses and AIDS, 1988. A compilation of nucleic acid and amino acid sequences. Los Alamos National Laboratory, Los Alamos, N. Mex., 87545, USA).

[3] = test system: antibodies to SIV/HIV-2; assay: EIA of peptide-protein conjugates coated on polystyrene microtiter plates, macaque sera; type: binding, rhesus macaque (Macaca mulatta); settings: for immunoreactivity with SIV/HIV-2 antibodies (FIG. 5): C-terminal BSA-SMCC conjugates, 10 micrograms peptide/ml coating, 1:101 dilution of pooled SIV+ / SIV- macaque sera; for discrimination of positive from negative macaque sera (FIG. 7): peptide-BSA conjugates
Text: For all of the immunoassays employing human serum, the serum samples were obtained from the King County Health Department, Seattle, Wash., U.S.A., and each serum had been characterized as positive or negative with respect to antibodies to HIV-1, as determined by testing with the commercially licensed Genetic Systems and or DuPont EIA tests. Serum from rhesus macaque monkeys (Macaca mulatta) was obtained from the University of Washington, Seattle, Wash., U.S.A., and had been characterized by a SIV whole virus lysate EIA as either containing or not containing antibodies to SIV which is nearly identical in sequence to HIV-2 in the region of the peptide epitopes studied.
as §1, §2

[4] = test system: Antibodies to HIV-2; assay: Detection of seroconversion in macaques experimentally infected with SIV, EIA; type: binding, macaque
Experimental: as §1
The immunoreactivity of the HIV-2 peptide BSA conjugates 2S24, (2S24 plus 5S86), and 5S92 was evaluated for detection of seroconversion in macaques using serial sera collected over a 16 week period from 7 macaques experimentally infected with SIV at week 0.

[5] = BSA-SMCC conjugate, 85 individual sera without antibodies to HIV-1
[6] = BSA-SMCC conjugate, 98 individual sera containing antibodies to HIV-1

ALGPAATLEEMMTACGC [5S94, HIV-1 p24 peptide with GC tail]
negative sera reacting [1, 5]: 0/85
negative sera reacting, percent [1, 5]: 0%
positive sera immunoreactive [1, 6]: 17/98
positive sera immunoreactive, percent [1, 6]: 17%
immunoreactivity with serum pools (FIG. 8) ([1]; BSA-SMCC conjugates, pool of approximately 50 HIV+ sera and approximately 30 HIV- sera): immunoreactive peptide; also recorded: significant immunoreactivity

AVERYLKDQQLLGC [2S01]
immunoreactivity with HIV-1 antibodies (FIG. 1) [2]: significantly less immunoreactive

CSGKLICTTAVPWNAGC [3S51]
immunoreactivity with HIV-1 antibodies (FIG. 1) [2]: Significant immunoreactivity; also recorded: higher reactivity

DQARLNSWGCAFRQVC [2S24]
immunoreactivity with SIV/HIV-2 antibodies (FIG. 5) [3]: Significant immunoreactivity; also recorded: best immunoreactivity; also recorded: maximally immunoreactive
discrimination of positive from negative macaque sera (FIG. 7) [3]: most favorable performances
Reactivity by Peptide-BSA Conjugate (reactive macaques/7) ([4]; Week 0 (SIV infection at week 0)): 0/7
Reactivity by Peptide-BSA Conjugate (reactive macaques/7) ([4]; Week 1): 0/7
Reactivity by Peptide-BSA Conjugate (reactive macaques/7) ([4]; Week 2): 1/7
Reactivity by Peptide-BSA Conjugate (reactive macaques/7) ([4]; Week 3): 2/7
Reactivity by Peptide-BSA Conjugate (reactive macaques/7) ([4]; Week 4): 4/7
Reactivity by Peptide-BSA Conjugate (reactive macaques/7) ([4]; Week 6): 6/7
Reactivity by Peptide-BSA Conjugate (reactive macaques/7) ([4]; Week 8): 7/7
Reactivity by Peptide-BSA Conjugate (reactive macaques/7) ([4]; Week 12): 7/7
Reactivity by Peptide-BSA Conjugate (reactive macaques/7) ([4]; Week 16): 7/7

ERYLKDQQLLGIWGC [2S02]
immunoreactivity with HIV-1 antibodies (FIG. 1) [2]: significantly less immunoreactive

GCSGKLICTTAVPWNGC [2S11]
immunoreactivity with HIV-1 antibodies (FIG. 1) [2]: Significant immunoreactivity; also recorded: higher reactivity

GKLICTTAVPWNASWGC [3S55]
immunoreactivity with HIV-1 antibodies (FIG. 1) [2]: Significant immunoreactivity; also recorded: higher reactivity

IKQLQARILAVERYLKDQQ [4S24, reference compound]
immunoreactivity with HIV-1 antibodies (FIG. 1) [2]: lower immunoreactivity

IWGCSGKLICTTAVPGC [2S09]
immunoreactivity with individual positive sera (FIGS. 10B, 10C) ([2]; BSA-SMCC conjugate, 98 HIV-1 antibody positive human sera): some positive samples had very low immunoreactivity
immunoreactivity with HIV-1 antibodies (FIG. 1) [2]: Significant immunoreactivity; also recorded: slightly superior immunoreactivity; also recorded: maximally immunoreactive; also recorded: higher reactivity

IWGCSGKMICTTAVPGC [5S76, unnatural variant of HIV-1 gp41 peptide 2S09]
number of positive samples giving A492 less than 1.0 ([2]; BSA-SMCC conjugate, 98 positive human sera (FIGS. 11A, 11B)): Five

KDQQLLGIWGCSGKLGC [2S04]
immunoreactivity with HIV-1 antibodies (FIG. 1) [2]: Significant immunoreactivity

KLICTTAVPWNASWSGC [2S15]
immunoreactivity with HIV-1 antibodies (FIG. 1) [2]: Significant immunoreactivity; also recorded: higher reactivity

LGIWGCSGKLICTTAGC [2S07]
immunoreactivity with HIV-1 antibodies (FIG. 1) [2]: Significant immunoreactivity

LLGIWGCSGKLICTTGC [2S06]
immunoreactivity with HIV-1 antibodies (FIG. 1) [2]: Significant immunoreactivity

QQLLGIWGCSGKLICGC [3S36]
immunoreactivity with HIV-1 antibodies (FIG. 1) [2]: Significant immunoreactivity

RILAVERYLKDQQLLGIWGCSGKLIC [4S25, reference compound]
immunoreactivity with HIV-1 antibodies (FIG. 1) [2]: Significant immunoreactivity; also recorded: lower immunoreactivity; also recorded: lower or comparable immunoreactivity

SGKLICTTAVPWNASGC [2S13]
immunoreactivity with HIV-1 antibodies (FIG. 1) [2]: Significant immunoreactivity; also recorded: higher reactivity

SWGCAFRQVCHTSVPGC [5S86, HIV-2/SIV natural peptide]
discrimination of positive from negative macaque sera (FIG. 7) [3]: most favorable performances

SWGCAFRQVCHTTVPGC [2S27]
immunoreactivity with SIV/HIV-2 antibodies (FIG. 5) [3]: Significant immunoreactivity; also recorded: best immunoreactivity; also recorded: maximally immunoreactive
discrimination of positive from negative macaque sera (FIG. 7) [3]: most favorable performances

YLKDQQLLGIWGCSGC [2S03]
immunoreactivity with HIV-1 antibodies (FIG. 1) [2]: significantly less immunoreactive
